Results taken from article PMC6270232, “1,2,3-Triazole-Substituted Oleanolic Acid Derivatives: Synthesis and Antiproliferative Activity” (Molecules, 2013).

Assays:
[1] = system: normal lung fibroblasts (MRC-5); test: Antiproliferative assay (MTT reduction), MRC-5; assay type: cell-based, human; design: key to Antiproliferative activity in words, MRC-5: IC50 values > 100 µM were considered inactive; settings: for IC50: Homo sapiens, MRC5, 72 h, MRC-5 normal lung fibroblasts, 3 days treatment, MTT, read-out: IC50 ± SD, MRC-5
Procedure: (§1) All human cell lines used in this work were purchased from the American Type Culture Collection (ATCC, Manasas, VA, USA). […] Promyelocytic leukemia HL-60 cells (CCL-240) were grown in suspension in RPM1 medium containing 1 mM sodium pyruvate and 2.0 g/L sodium bicarbonate. All media were supplemented with 10% heat-inactivated FBS, 100 IU/mL penicillin and 100 µg/mL streptomycin. […] For the antiproliferative assay, adherent cells were plated at a density of 5 × 10^4 cells/mL and HL-60 cells at 30 × 10^4 cells/mL. Cells were seeded in 96-well plates (100 µL/well). One day after seeding, cells were treated with medium containing the compounds at concentrations ranging from 0 up to 100 µM during 3 days. The compounds were dissolved in DMSO (1% final concentration) and complete medium. Untreated cells (medium containing 1% DMSO) were used as 100% viability controls. […] Each concentration was tested in sextuplicate and experiments were repeated 2 times. Cell viability was determined by means of the MTT reduction assay at the end of the incubation with the products.

[2] = system: gastric epithelial adenocarcinoma (AGS) cells; test: Antiproliferative assay (MTT reduction), AGS; assay type: cell-based; settings: Homo sapiens, 72 h, 3 days treatment, read-out: IC50 ± SD, AGS
Procedure: (§2) All human cell lines used in this work were purchased from the American Type Culture Collection (ATCC, Manasas, VA, USA). Normal lung MRC-5 fibroblasts (CCL-171), SK-MES-1 lung cancer cells (HTB-58) and J82 bladder carcinoma cells (HTB-1) were grown as monolayers in minimum essential Eagle medium (MEM) with Earles’s salts, 2 mM L-glutamine and 1.5 g/L sodium bicarbonate. Gastric adenocarcinoma AGS cells (CRL-1739) were grown as monolayers in Ham F-12 medium containing 1 mM L-glutamine and 1.5 g/L sodium bicarbonate. Promyelocytic leukemia HL-60 cells (CCL-240) were grown in suspension in RPM1 medium containing 1 mM sodium pyruvate and 2.0 g/L sodium bicarbonate. All media were supplemented with 10% heat-inactivated FBS, 100 IU/mL penicillin and 100 µg/mL streptomycin. Cells were grown in a humidified incubator with 5% CO2 in air at 37 °C. For the antiproliferative assay, adherent cells were plated at a density of 5 × 10^4 cells/mL and HL-60 cells at 30 × 10^4 cells/mL. Cells were seeded in 96-well plates (100 µL/well). One day after seeding, cells were treated with medium containing the compounds at concentrations ranging from 0 up to 100 µM during 3 days. The compounds were dissolved in DMSO (1% final concentration) and complete medium. Untreated cells (medium containing 1% DMSO) were used as 100% viability controls. […] Each concentration was tested in sextuplicate and experiments were repeated 2 times. Cell viability was determined by means of the MTT reduction assay at the end of the incubation with the products. The results were transformed to percentage of controls and the IC50 values were graphically obtained from the dose-response curves.

[3] = system: lung cancer (SK-MES-1) cells; test: Antiproliferative assay (MTT reduction), SK-MES-1; assay type: cell-based; settings: Homo sapiens, 72 h, SK-MES-1 lung cancer cells, 3 days treatment, read-out: IC50 ± SD, SK-MES-1
Procedure: as §1

[4] = system: bladder carcinoma (J82) cells; test: Antiproliferative assay (MTT reduction), J82; assay type: cell-based; settings: Homo sapiens, 72 h, 3 days treatment, read-out: IC50 ± SD, J82
Procedure: as §2

[5] = system: promyelocytic leukemia (HL-60) cells; test: Antiproliferative assay (MTT reduction), HL-60; assay type: cell-based; settings: Homo sapiens, 72 h, HL-60 promyelocytic leukemia cells, 3 days treatment, read-out: IC50 ± SD, HL-60
Procedure: as §1

[6] = system: MRC-5, AGS, HL-60, SK-MES-1 and J82 cells; test: Antiproliferative assay (MTT reduction), all cell lines together; assay type: cell-based, human; design: key to Antiproliferative activity in words, all cell lines: IC50 values > 100 µM were considered inactive; settings: SK-MES-1, J82 and HL-60; for IC50: Homo sapiens, range over MRC-5, AGS; for Antiproliferative activity in words, all cell lines: MRC-5, AGS, up to 100 µM
Procedure: as §2

SMILES	IC50 [1] [µM]	IC50 [2] [µM]	IC50 [3] [µM]	IC50 [4] [µM]	IC50 [5] [µM]	IC50 [6] [µM]	melting point [°C]	Antiproliferative activity in words, all cell lines [6]	Antiproliferative activity in words, MRC-5 ([1]; MRC-5 cells, up to 100 µM)
C#CCCC(=O)O[C@H]1CC[C@@]2(C)C(CC[C@]3(C)C2CC=C2[C@@H]4CC(C)(C)CC[C@]4(C(=O)O)CC[C@]23C)C1(C)C (stereo partly shown) [Compound 1]	21.3 ± 0.9	19.1 ± 1	22.4 ± 1.9	23.1 ± 1.6	19.6 ± 0.1	19.6 to 23.1	235		
C#CCCC(=O)O[C@H]1CC[C@@]2(C)C(CC[C@]3(C)C2CC=C2[C@@H]4CC(C)(C)CC[C@]4(C(=O)OC)CC[C@]23C)C1(C)C (stereo partly shown) [Compound 2]	> 100	> 100	> 100	> 100	> 100		173	inactive	
C#CCCCC(=O)O[C@H]1CC[C@@]2(C)C(CC[C@]3(C)C2CC=C2[C@@H]4CC(C)(C)CC[C@]4(C(=O)O)CC[C@]23C)C1(C)C (stereo partly shown) [Compound 3]	14.1 ± 1.2	22.1 ± 1.5	23.4 ± 1.8	56.2 ± 4.3	22.4 ± 0.1	14.1 to 56.2	212		
C#CCCCC(=O)O[C@H]1CC[C@@]2(C)C(CC[C@]3(C)C2CC=C2[C@@H]4CC(C)(C)CC[C@]4(C(=O)OC)CC[C@]23C)C1(C)C (stereo partly shown) [Compound 4]	> 100	> 100	> 100	> 100	> 100		176	inactive	
CC1(C)CC[C@]2(C(=O)O)CC[C@]3(C)C(=CCC4[C@@]5(C)CC[C@H](OC(=O)CCc6cn(-c7ccccc7)nn6)C(C)(C)C5CC[C@]43C)[C@@H]2C1 (stereo partly shown) [Compound 5]	> 100	> 100	> 100	> 100	> 100				
COC(=O)[C@]12CCC(C)(C)C[C@H]1C1=CCC3[C@@]4(C)CC[C@H](OC(=O)CCc5cn(-c6ccccc6)nn5)C(C)(C)C4CC[C@@]3(C)[C@]1(C)CC2 (stereo partly shown) [Compound 6]	> 100	> 100	> 100	> 100	> 100				
COc1ccc(-n2cc(CCC(=O)O[C@H]3CC[C@@]4(C)C(CC[C@]5(C)C4CC=C4[C@@H]6CC(C)(C)CC[C@]6(C(=O)O)CC[C@]45C)C3(C)C)nn2)cc1 (stereo partly shown) [Compound 7]	> 100	95.1 ± 5.8	> 100	> 100	> 100		210		
COC(=O)[C@]12CCC(C)(C)C[C@H]1C1=CCC3[C@@]4(C)CC[C@H](OC(=O)CCc5cn(-c6ccc(OC)cc6)nn5)C(C)(C)C4CC[C@@]3(C)[C@]1(C)CC2 (stereo partly shown) [Compound 8]	> 100	> 100	> 100	> 100	> 100				
CC1(C)CC[C@]2(C(=O)O)CC[C@]3(C)C(=CCC4[C@@]5(C)CC[C@H](OC(=O)CCc6cn(Cc7ccc(Cl)cc7)nn6)C(C)(C)C5CC[C@]43C)[C@@H]2C1 (stereo partly shown) [Compound 9]	> 100	8.9 ± 0.4	50.4 ± 3.5	35.4 ± 2.8	35.8 ± 4.1		184		
COC(=O)[C@]12CCC(C)(C)C[C@H]1C1=CCC3[C@@]4(C)CC[C@H](OC(=O)CCc5cn(Cc6ccc(Cl)cc6)nn5)C(C)(C)C4CC[C@@]3(C)[C@]1(C)CC2 (stereo partly shown) [Compound 10]	> 100	> 100	> 100	> 100	> 100			activity was lost	
COC(=O)[C@]12CCC(C)(C)C[C@H]1C1=CCC3[C@@]4(C)CC[C@H](OC(=O)CCc5cn(S(=O)(=O)c6ccc(C)cc6)nn5)C(C)(C)C4CC[C@@]3(C)[C@]1(C)CC2 (stereo partly shown) [Compound 12]	76 ± 3.8	63 ± 3.8	76.3 ± 5.1	> 100	22.4 ± 1.8				
CC1(C)CC[C@]2(C(=O)O)CC[C@]3(C)C(=CCC4[C@@]5(C)CC[C@H](OC(=O)CCc6cn(CSc7ccccc7)nn6)C(C)(C)C5CC[C@]43C)[C@@H]2C1 (stereo partly shown) [Compound 13]	> 100	31.6 ± 1.6	65.5 ± 4.4	> 100	18.1 ± 1.6		170		inactive
COC(=O)[C@]12CCC(C)(C)C[C@H]1C1=CCC3[C@@]4(C)CC[C@H](OC(=O)CCc5cn(CSc6ccccc6)nn5)C(C)(C)C4CC[C@@]3(C)[C@]1(C)CC2 (stereo partly shown) [Compound 14]	> 100	> 100	> 100	> 100	> 100		195		
COC(=O)[C@]12CCC(C)(C)C[C@H]1C1=CCC3[C@@]4(C)CC[C@H](OC(=O)CCCc5cn(S(=O)(=O)c6ccc(C)cc6)nn5)C(C)(C)C4CC[C@@]3(C)[C@]1(C)CC2 (stereo partly shown) [Compound 16]	> 100	> 100	> 100	> 100	84.2 ± 7.5				
CC1(C)CC[C@]2(C(=O)O)CC[C@]3(C)C(=CCC4[C@@]5(C)CC[C@H](OC(=O)CCCc6cn(CSc7ccccc7)nn6)C(C)(C)C5CC[C@]43C)[C@@H]2C1 (stereo partly shown) [Compound 17]	46.7 ± 2.4	23.7 ± 1.4	61.8 ± 3.1	> 100	11.8 ± 0.9		198		
COC(=O)[C@]12CCC(C)(C)C[C@H]1C1=CCC3[C@@]4(C)CC[C@H](OC(=O)CCCc5cn(CSc6ccccc6)nn5)C(C)(C)C4CC[C@@]3(C)[C@]1(C)CC2 (stereo partly shown) [Compound 18]	> 100	> 100	> 100	> 100	> 100				
COc1cc([C@@H]2c3cc4c(cc3[C@@H](O[C@@H]3O[C@@H]5CO[C@@H](C)O[C@H]5[C@H](O)[C@H]3O)[C@H]3COC(=O)[C@H]23)OCO4)cc(OC)c1O [Etoposide, reference compound]		0.58 ± 0.02		3.49 ± 0.16					
